The test system of one assay is SKM MF. The assay can be described thus: SKM MF AC1.4: ATPase screen of skeletal sarcomeric proteins with PK/LDH coupled enzyme system. Set-up: AC1.4 Median: unit not given here. The conditions noted are these: median. The class given is biochemical. The method, then:
For example, test compounds can be assayed in a highly parallel fashion by using multiwell plates by placing the compounds either individually in wells or testing them in mixtures. Assay components including the target protein complex, coupling enzymes and substrates, and ATP can then be added to the wells and the absorbance or fluorescence of each well of the plate can be measured with a plate reader.
In some embodiments, the method uses a 384 well plate format and a 25 μL reaction volume. A pyruvate kinase/lactate dehydrogenase coupled enzyme system (Huang T G and Hackney D D. (1994) J Biol Chem 269(23):16493-501) can be used to measure the rate of ATP hydrolysis in each well. As will be appreciated by those in the art, the assay components are added in buffers and reagents. The incubation periods can be optimized to give adequate detection signals over the background. The assay can be done in real time giving the kinetics of ATP hydrolysis which increases the signal to noise ratio of the assay.
Just prior to screening, the actin, tropomyosin, and troponin complex are mixed together in the desired ratio (e.g., 7:1:1) to achieve maximal calcium regulation of the actin filament. The screen is conducted at a pCa=6.5. This calcium concentration is in the physiological range during muscle contraction.
To measure the generation of ADP during the reaction, a pyruvate kinase/lactate dehydrogenase/NADH coupled enzyme system (PK/LDH) is added to the actin. The myosin is kept separately. The plates are read in real time so that kinetic curves are obtained. These compounds are in DMSO and were already spotted onto the bottoms of 384 well plates at 10 to 40 μg/ml final concentration.
With `C[C@H](c1ccccc1)n1c(O)nc2ncc(Cl)cc21` [1-((1R)-1-phenylethyl)-6-chloroimidazo[4,5-b]pyridin-2-ol], the “AC1.4 Median” value came to 35.2255.

On to `CC(Cn1c(O)nc2ncc(Cl)cc21)c1ccccc1` (centres unmarked) [6-chloro-1-(2-phenylpropyl)imidazo[4,5-b]pyridin-2-ol], for which the “AC1.4 Median” value stood at 22.4532.

With `C#Cc1cnc2nc(O)n(C(CC)CC)c2c1` [6-ethynyl-1-(pentan-3-yl)-1H-imidazo[4,5-b]pyridin-2-ol], the “AC1.4 Median” value is reported as 0.1667.

With “[1-(ethylpropyl)-6-ethynyl-2-hydroxyimidazo[4,5-b]pyridin-7-yl]-N-methylcarboxamide”, the “AC1.4 Median” value is listed as 6.7023.

For `CCC(CC)n1c(O)nc2ncc(Cl)c(C)c21` [6-chloro-1-(ethylpropyl)-7-methylimidazo[4,5-b]pyridin-2-ol], the “AC1.4 Median” value is 3.9463.

`CC(C)CC(C)n1c(O)nc2ncc(Cl)cc21` (centres unmarked) [1-(1,3-dimethylbutyl)-6-chloroimidazo[4,5-b]pyridin-2-ol]: the “AC1.4 Median” value came out at 5.7765.

Consider “1-(ethylpropyl)-6-ethynyl-7-methylimidazo[4,5-b]pyridin-2-ol”, for which the “AC1.4 Median” value came to 2.0265.

With `CCC(CO)n1c(O)nc2ncc(Cl)cc21` (centres unmarked) [6-chloro-1-(1-ethyl-2-hydroxyethyl)imidazo[4,5-b]pyridin-2-ol], the “AC1.4 Median” value amounted to 8.4752.

Regarding `COC(=O)N1CCN(C[C@@H](CC(C)C)n2c(O)nc3cc(Cl)cnc32)CC1` [methyl 4-[(2R)-2-(6-chloro-2-hydroxyimidazo[4,5-b]pyridinyl)-4-methylpentyl]piperazinecarboxylate], the “AC1.4 Median” value is 8.3875.

On to `CCC(CC)n1c(O)nc2ncc(SC)cc21` [6-(methylthio)-1-(pentan-3-yl)-1H-imidazo[4,5-b]pyridin-2-ol], for which the “AC1.4 Median” value is given as 13.7960.

Regarding `C[C@@H](c1ccccc1)n1c(O)nc2ncc(Cl)cc21` [1-((1S)-1-phenylethyl)-6-chloroimidazo[4,5-b]pyridin-2-ol], the “AC1.4 Median” value amounted to 31.7670.

Take `CC(n1c(O)nc2ncc(Cl)cc21)C(C)(C)C` (centres unmarked) [6-chloro-1-(1,2,2-trimethylpropyl)imidazo[4,5-b]pyridin-2-ol]: the “AC1.4 Median” value stood at 28.0697.

Regarding “1-(ethylpropyl)-6-(3-thienyl)imidazo[4,5-b]pyridin-2-ol”, the “AC1.4 Median” value was 22.3369.

For “6-chloro-1-(ethylpropyl)-7-(hydroxymethyl)imidazo[4,5-b]pyridin-2-ol”, the “AC1.4 Median” value stood at 42.6538.

For the compound `CCC(CC)n1c(O)nc2ncc(Cl)c(/C=N\OC(C)(C)C)c21` [7-[(1Z)-2-(tert-butoxy)-2-azavinyl]-6-chloro-1-(ethylpropyl)imidazo[4,5-b]pyridin-2-ol], the “AC1.4 Median” value is given as 19.5317.

As for `CCC(CC)n1c(O)nc2ncc(Cl)c(/C=N/OC(C)(C)C)c21` [7-[(1E)-2-(tert-butoxy)-2-azavinyl]-6-chloro-1-(ethylpropyl)imidazo[4,5-b]pyridin-2-ol], the “AC1.4 Median” value stood at 1.8945.

Regarding `Oc1nc2ncc(Cl)cc2n1[C@H](Cc1ccccc1)CN1CCOCC1` [1-[(1R)-2-morpholin-4-yl-1-benzylethyl]-6-chloroimidazo[4,5-b]pyridin-2-ol], the “AC1.4 Median” value was determined as 8.8149.

As for “6-chloro-1-(ethylpropyl)-7-(hydroxyethyl)imidazo[4,5-b]pyridin-2-ol”, the “AC1.4 Median” value is 30.7467.

On to `CCC(CC)n1c(O)nc2nc(Cl)c(Cl)cc21` [5,6-dichloro-1-(ethylpropyl)imidazo[4,5-b]pyridin-2-ol], for which the “AC1.4 Median” value is given as 8.6854.

As for `CC(C)C[C@H](CO)n1c(O)nc2ncc(Cl)cc21` [1-[(1R)-2-hydroxy-1-(2-methylpropyl)ethyl]-6-chloroimidazo[4,5-b]pyridin-2-ol], the “AC1.4 Median” value was 5.6431.

For the compound `CCCC(CCC)n1c(O)nc2ncc(Cl)cc21` [6-chloro-1-(propylbutyl)imidazo[4,5-b]pyridin-2-ol], the “AC1.4 Median” value was 3.7477.

The same assay, now with this note: median value (footnote †).
In the case of `C#Cc1cnc2nc(O)n(C(CC)CC)c2c1` [6-ethynyl-1-(pentan-3-yl)-1H-imidazo[4,5-b]pyridin-2-ol], the “SKM MF AC1.4 (μM)” value is reported as 0.1563^† μM.

Take `CCC(CC)n1c(O)nc2ncc(SC)cc21` [6-(methylthio)-1-(pentan-3-yl)-1H-imidazo[4,5-b]pyridin-2-ol]: the “SKM MF AC1.4 (μM)” value is on record as 13.796^† μM.

For the origin of these results see patent publication US7851484B2, “Certain chemical entities, compositions, and methods” (Cytokinetics, Inc., priority 2007, dated 2010).
